From US10822337B2, “TGF-β inhibitorC” (Rigel Pharmaceuticals, Inc., priority 2015, dated 2020)
pIC50: −log10 of the molar value.

How the values were obtained:
[1] = tested on: GDF8 signaling (GDF pSMAD, MPC11); test: AlphaScreen SureFire SMAD3 (p-Ser423/425) assay, inhibition of GDF8 signaling; format: cell-based; conditions: Mus musculus, MPC-11, p-SMAD-3 (Ser423/425) in cell lysate after GDF8 stimulation
[2] = tested on: TGF-β signaling (TGF-β pSMAD, MPC-11); test: AlphaScreen SureFire SMAD3 (p-Ser423/425) assay, inhibition of TGF-β signaling; format: cell-based; conditions: Mus musculus, p-SMAD-3 (Ser423/425) in cell lysate after TGF-β stimulation
Outline: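 Cells in collagen-coated plates were pretreated about 10 minutes with three-fold DMSO serial dilutions of compound, then stimulated with TGF-β. They were lysed with about 25 μL 1× Lysis Buffer. Lysates in 384-well plates were incubated protected from light with Acceptor bead mix for 2 hours and Donor bead mix for 1½ hours. p-SMAD-3 (Ser423/425) was read on Synergy-4 or Enspire using AlphaScreen pSMAD3 settings.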

Row | pIC50 [1] | pIC50 [2] | SMILES
1 | 5.70 | 5.22 | FC(F)(F)c1cccc(-c2nn3c(c2-c2ccc4ncccc4c2)OCC3)c1 [Compound 63, 7-(Quinolin-6-yl)-6-(3-trifluoromethylphenyl)-2,3-dihydropyrazolo[5,1-b]oxazole]
2 | 6.30 | 6.07 | Fc1c(Cl)cccc1-c1nn2c(c1-c1ccc3ncsc3c1)CCC2 [Compound 140, 6-(2-(3-Chloro-2-fluorophenyl)-5,6-dihydro-4H-pyrrolo[1,2-b]pyrazol-3-yl)benzo[d]thiazole]
3 | 6.81 | 6.18 | Fc1ccc(-c2nn3c(c2-c2ccc4nccnc4c2)CCC3)c(F)c1 [Compound 96, 6-(2-(2,4-Difluorophenyl)-5,6-dihydro-4H-pyrrolo[1,2-b]pyrazol-3-yl)quinoxaline]
4 | 7.44 | 6.71 | Cc1cccc(-c2nn3c(c2-c2ccc4cn[nH]c4c2)OCC3)c1 [Compound 37, 7-(1H-indazol-6-yl)-6-(m-tolyl)-2,3-dihydropyrazolo[5,1-b]oxazole]
5 | 7.10 | 6.62 | COc1cccc(-c2nn3c(c2-c2ccc4cn[nH]c4c2)CCC3)c1 [Compound 28, 6-(2-(3-Methoxyphenyl)-5,6-dihydro-4H-pyrrolo[1,2-b]pyrazol-3-yl)-1H-indazole]
6 | 7.22 | 6.76 | Cc1cccc(-c2nn3c(c2-c2ccc4ncsc4c2)OCC3)c1 [Compound 39]
7 | 7.27 | 7.34 | FC(F)(F)Oc1cccc(-c2nn3c(c2-c2ccc4nccn4c2)CCC3)c1 [Compound 124, 6-(2-(3-Trifluoromethoxyphenyl)-5,6-dihydro-4H-pyrrolo[1,2-b]pyrazol-3-yl)imidazo[1,2-a]pyridine]
8 | 6.21 | 5.63 | Fc1ccccc1-c1nn2c(c1-c1ccc3nccnc3c1)CCC2 [Compound 136, 6-(2-(2-Fluorophenyl)-5,6-dihydro-4H-pyrrolo[1,2-b]pyrazol-3-yl)quinoxaline]
9 | 6.91 | 6.43 | Cc1cc(-c2nn3c(c2-c2ccc4ncsc4c2)CCC3)ccc1F [Compound 17, 6-(2-(4-Fluoro-3-methylphenyl)-5,6-dihydro-4H-pyrrolo[1,2-b]pyrazol-3-yl)benzo[d]thiazole]
10 | 6.53 | 6.01 | COc1ccc(-c2nn3c(c2-c2ccc4[nH]ncc4c2)CCC3)cc1 [Compound 98, 5-(2-(4-Methoxyphenyl)-5,6-dihydro-4H-pyrrolo[1,2-b]pyrazol-3-yl)-1H-indazole]
11 | 7.21 | 6.64 | Fc1ccc(-c2nn3c(c2-c2ccc4ncnn4c2)CCC3)c(F)c1 [Compound 111, 6-(2-(2,4-Difluorophenyl)-5,6-dihydro-4H-pyrrolo[1,2-b]pyrazol-3-yl)-[1,2,4]triazolo[1,5-a]pyridine]
12 | 6.71 | 6.24 | Fc1ccc(-c2nn3c(c2-c2ccc4ncsc4c2)CCC3)cc1Cl [Compound 145, 6-(2-(3-Chloro-4-fluorophenyl)-5,6-dihydro-4H-pyrrolo[1,2-b]pyrazol-3-yl)benzo[d]thiazole]
13 | 7.14 | 6.40 | Clc1cccc(-c2nn3c(c2-c2ccc4nccnc4c2)CCC3)c1 [Compound 57, 6-(2-(3-Chlorophenyl)-5,6-dihydro-4H-pyrrolo[1,2-b]pyrazol-3-yl)quinoxaline]
14 | 6.23 | 5.69 | Fc1ccc(F)c(-c2nn3c(c2-c2ccc4[nH]ncc4c2)CCC3)c1 [Compound 1, 5-(2-(2,5-difluorophenyl)-5,6-dihydro-4H-pyrrolo[1,2-b]pyrazol-3-yl)-1H-indazole]
15 | 6.92 | 6.44 | Cc1cc(-c2nn3c(c2-c2ccc4nccn4c2)CCC3)ccc1F [Compound 20, 6-(2-(4-Fluoro-3-methylphenyl)-5,6-dihydro-4H-pyrrolo[1,2-b]pyrazol-3-yl)imidazo[1,2-a]pyridine]
16 | 6.67 | 6.22 | Cc1c(F)ccc(-c2nn3c(c2-c2ccc4ncsc4c2)CCC3)c1F [Compound 170, 6-(2-(2,4-Difluoro-3-methylphenyl)-5,6-dihydro-4H-pyrrolo[1,2-b]pyrazol-3-yl)benzo[d]thiazole]
17 | 6.76 | 6.15 | Cc1cc(-c2nn3c(c2-c2ccc4[nH]ncc4c2)CCC3)c(F)cc1F [Compound 179, 5-(2-(2,4-Difluoro-5-methyphenyl)-5,6-dihydro-4H-pyrrolo[1,2-b]pyrazol-3-yl)-1H-indazole]
18 | 7.07 | 6.26 | Fc1ccc(-c2nn3c(c2-c2ccc4ncsc4c2)CCC3)c(F)c1Cl [Compound 158, 6-(2-(3-Chloro-2,4-difluorophenyl)-5,6-dihydro-4H-pyrrolo[1,2-b]pyrazol-3-yl)benzo[d]thiazole]
19 | 6.69 | 6.42 | Cc1cc(-c2nn3c(c2-c2ccc4nccn4c2)CCC3)c(F)cc1F [Compound 181, 6-(2-(2,4-Difluoro-5-methylphenyl)-5,6-dihydro-4H-pyrrolo[1,2-b]pyrazol-3-yl)imidazo[1,2-a]pyridine]

Row | pIC50 [1] | pIC50 [2] | SMILES
20 | 7.00 | 6.46 | Fc1ccc(-c2nn3c(c2-c2ccc4nccn4c2)CCC3)cc1Cl [Compound 144, 6-(2-(3-Chloro-4-fluorophenyl)-5,6-dihydro-4H-pyrrolo[1,2-b]pyrazol-3-yl)imidazo[1,2-a]pyridine]
21 | 7.55 | 7.38 | Fc1ccc(Cl)cc1-c1nn2c(c1-c1ccc3ncsc3c1)CCC2 [Compound 175, 6-(2-(5-Chloro-2-fluorophenyl)-5,6-dihydro-4H-pyrrolo[1,2-b]pyrazol-3-yl)benzo[d]thiazole]
22 | 7.23 | 6.22 | Fc1ccc(F)c(-c2nn3c(c2-c2ccc4nccnc4c2)CCC3)c1 [Compound 197, 6-(2-(2,5-Difluorophenyl)-5,6-dihydro-4H-pyrrolo[1,2-b]pyrazol-3-yl)quinoxaline]
23 | 7.01 | 6.18 | Fc1cc(F)c(-c2nn3c(c2-c2ccc4nccnc4c2)CCC3)cc1F [Compound 118, 6-(2-(2,4,5-Trifluorophenyl)-5,6-dihydro-4H-pyrrolo[1,2-b]pyrazol-3-yl)quinoxaline]
24 | 6.37 | 5.87 | COc1c(F)ccc(-c2nn3c(c2-c2ccc4ncnn4c2)CCC3)c1F [Compound 163, 6-(2-(2,4-Difluoro-3-methoxyphenyl)-5,6-dihydro-4H-pyrrolo[1,2-b]pyrazol-3-yl)-[1,2,4]triazolo[1,5-a]pyridine]
25 | 7.46 | 6.82 | Clc1cccc(-c2nn3c(c2-c2ccc4ncnn4c2)CCC3)c1 [Compound 107, 6-(2-(3-Chlorophenyl)-5,6-dihydro-4H-pyrrolo[1,2-b]pyrazol-3-yl)-[1,2,4]triazolo[1,5-a]pyridine]
26 | 7.44 | 6.82 | Fc1ccc(Cl)cc1-c1nn2c(c1-c1ccc3cn[nH]c3c1)CCC2 [Compound 174, 6-(2-(5-Chloro-2-fluorophenyl)-5,6-dihydro-4H-pyrrolo[1,2-b]pyrazol-3-yl)-1H-indazole]
27 | 6.44 | 5.99 | Fc1ccc(-c2nn3c(c2-c2ccc4ncsc4c2)CCC3)cc1F [Compound 87, 6-(2-(3,4-Difluorophenyl)-5,6-dihydro-4H-pyrrolo[1,2-b]pyrazol-3-yl)benzo[d]thiazole]
28 | 6.89 | 6.34 | FC(F)(F)c1cccc(-c2nn3c(c2-c2ccc4nccn4c2)OCC3)c1 [Compound 61, 7-(Imidazo[1,2-a]pyridin-6-yl)-6-(3-trifluoromethylphenyl)-2,3-dihydropyrazolo[5,1-b]oxazole]
29 | 6.65 | 5.83 | Fc1cc(F)c(-c2nn3c(c2-c2ccc4cn[nH]c4c2)CCC3)cc1F [Compound 113, 6-(2-(2,4,5-Trifluorophenyl)-5,6-dihydro-4H-pyrrolo[1,2-b]pyrazol-3-yl)-1H-indazole]
30 | 6.09 | 5.64 | Fc1cccc(-c2nn3c(c2-c2ccc4cn[nH]c4c2)CCC3)c1 [Compound 78, 6-(2-(3-Fluorophenyl)-5,6-dihydro-4H-pyrrolo[1,2-b]pyrazol-3-yl)-1H-indazole]
31 | 6.75 | 6.04 | Fc1ccc(F)c(-c2nn3c(c2-c2ccc4nccn4c2)CCC3)c1 [Compound 194, 6-(2-(2,5-Difluorophenyl)-5,6-dihydro-4H-pyrrolo[1,2-b]pyrazol-3-yl)imidazo[1,2-a]pyridine]
32 | 7.67 | 7.10 | Cc1cccc(-c2nn3c(c2-c2ccc4cn[nH]c4c2)CCC3)c1 [Compound 8, 6-(2-(m-Tolyl)-5,6-dihydro-4H-pyrrolo[1,2-b]pyrazol-3-yl)-1H-indazole]
33 | 6.84 | 6.18 | Fc1ccccc1-c1nn2c(c1-c1ccc3ncnn3c1)CCC2 [Compound 137, 6-(2-(2-Fluorophenyl)-5,6-dihydro-4H-pyrrolo[1,2-b]pyrazol-3-yl)-[1,2,4]triazolo[1,5-a]pyridine]
34 | 6.04 | 5.63 | Fc1ccc(-c2nn3c(c2-c2ccc4nccnc4c2)CCC3)c(F)c1F [Compound 132, 6-(2-(2,3,4-Trifluorophenyl)-5,6-dihydro-4H-pyrrolo[1,2-b]pyrazol-3-yl)quinoxaline]
35 | 6.98 | 5.99 | Fc1ccc(-c2nn3c(c2-c2ccc4[nH]ncc4c2)CCC3)c(F)c1Cl [Compound 155, 5-(2-(3-Chloro-2,4-difluorophenyl)-5,6-dihydro-4H-pyrrolo[1,2-b]pyrazol-3-yl)-1H-indazole]
36 | 6.16 | 5.43 | COc1ccc(-c2nn3c(c2-c2ccc4ncsc4c2)CCC3)cc1 [Compound 100, 6-(2-(4-Methoxyphenyl)-5,6-dihydro-4H-pyrrolo[1,2-b]pyrazol-3-yl)benzo[d]thiazole]
37 | 6.91 | 6.62 | Clc1cccc(-c2nn3c(c2-c2ccc4cn[nH]c4c2)CCC3)c1 [Compound 23, 6-(2-(3-Chlorophenyl)-5,6-dihydro-4H-pyrrolo[1,2-b]pyrazol-3-yl)-1H-indazole]
